{
  "source": "paper PMC11249646",
  "about": "“Small-Molecule Disruptors of the Interaction between Calcium- and Integrin-Binding Protein 1 and Integrin αIIbβ3 as Novel Antiplatelet Agents” (ACS Pharmacology & Translational Science, 2024)",
  "key": {"[1]": {"biological_target": "T1, GST-CIB1 : F-scrambled peptide (Homo sapiens, UniProt Q99828)", "T1 construct": "made in house; host or cells: BL-21 plus RIL cells (E. coli)", "T1 sequence (Q99828 1-191)": "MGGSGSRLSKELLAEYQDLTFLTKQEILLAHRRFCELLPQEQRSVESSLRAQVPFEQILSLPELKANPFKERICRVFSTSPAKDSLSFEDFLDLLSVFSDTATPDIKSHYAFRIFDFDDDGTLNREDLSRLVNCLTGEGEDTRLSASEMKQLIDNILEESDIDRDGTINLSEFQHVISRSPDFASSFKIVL", "assay": "FP scrambled-peptide counter screen, 384-well format", "type": "binding", "conditions": "F-scrambled peptide"}, "[2]": {"biological_target": "T2, CIB1 and αIIb interaction (CIB1-GST : F-αIIb peptide) (Homo sapiens, UniProt Q99828)", "T2 construct": "made in house; host or cells: BL-21 plus RIL cells (E. coli)", "T2 sequence (Q99828 1-191)": "T1 sequence (Q99828 1-191)", "assay": "FP assay, 1536-well qHTS format (primary and confirmatory screen)", "type": "binding"}, "[3]": {"biological_target": "T1, GST-CIB1 : F-scrambled peptide", "assay": "FP scrambled-peptide counter screen, 1536-well format", "type": "binding", "conditions": "scrambled-peptide counterscreen"}, "[4]": {"biological_target": "T3, GST-CIB1:F-αIIb interaction (Homo sapiens, UniProt Q99828)", "T3 construct": "made in house; host or cells: BL-21 plus RIL cells (E. coli)", "T3 sequence (Q99828 1-191)": "T1 sequence (Q99828 1-191)", "assay": "Gel-based (in-gel) binding assay", "conditions": "1 μM GST-CIB1, 400 nM F-αIIb; 60 μM, 1:2, 4-points"}, "[5]": {"biological_target": "T4, GST-CIB1 : F-αIIb peptide (Homo sapiens, UniProt Q99828)", "T4 construct": "made in house; host or cells: BL-21 plus RIL cells (E. coli)", "T4 sequence (Q99828 1-191)": "T1 sequence (Q99828 1-191)", "assay": "FP assay in the presence of glutathione (GSH), thiol reactivity", "type": "binding"}, "[6]": {"system": "washed human platelets", "assay": "Human platelet aggregation assay (thrombin-induced)", "type": "cell-based", "how_it_was_run": "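Washed platelets (2 × 10^8/mL) from citrated blood of healthy volunteers, pretreated 30 min at 37 °C with compound or DMSO vehicle, then activated with 0.03 U/mL thrombin. Aggregation traces recorded by aggregometry; P-selectin (CD62P) exposure measured by flow cytometry.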"}, "[7]": {"biological_target": "T5, CIB1 and αIIb peptide (Homo sapiens, UniProt Q99828)", "T5 sequence (Q99828 1-191)": "T1 sequence (Q99828 1-191)", "assay": "Intrinsic tryptophan fluorescence (ITF) assay"}},
  "note": "Like-named read-outs stand apart in the source and are kept apart here.",
  "data": [
    {"smiles": "COc1ccccc1C(=O)c1no[n+]([O-])c1C(=O)c1ccccc1OC.O=C(O)C(F)(F)F", "note": "[NCGC00351170-01]", "values": [
      {"measurement": "384-well COUNTERSCREEN Efficacy (%)", "setting": "[1]", "value": 34, "unit": "%"},
      {"measurement": "384-well COUNTERSCREEN Confirm?", "setting": "[1]; *: Curve in opposite direction", "value": "Inconclusive"},
      {"measurement": "IC50", "setting": "[1]; read-out: 384-well COUNTERSCREEN IC50", "value": 8.9, "unit": "µM"},
      {"measurement": "CONFIRMATORY SCREEN Confirm?", "setting": "[2]; confirmatory screen, YES/NO call", "value": "YES"},
      {"measurement": "CONFIRMATORY SCREEN Curve Class", "setting": "[2]; confirmatory screen, qHTS curve class, negative sign = inhibitory curve", "value": -1.2},
      {"measurement": "CONFIRMATORY SCREEN Efficacy (%)", "setting": "[2]; confirmatory screen, negative = inhibition", "value": -45, "unit": "%"},
      {"measurement": "IC50", "setting": "[2]; confirmatory screen, read-out: CONFIRMATORY SCREEN IC50", "value": 5.6, "unit": "µM"},
      {"measurement": "Efficacy (%)", "setting": "[2]; qHTS FP screen hits, Table S2, negative = inhibition", "value": -37, "unit": "%"},
      {"measurement": "Curve Class", "setting": "[2]; qHTS FP screen hits, Table S2, one class per curve where COUNT > 1, negative sign = inhibitory curve", "value": -1.2},
      {"measurement": "IC50", "setting": "[2]; qHTS FP screen hits, Table S2, read-out: IC50", "value": 5, "unit": "µM"},
      {"measurement": "COUNTERSCREEN Efficacy (%)", "setting": "[3]", "value": -14, "unit": "%"},
      {"measurement": "COUNTERSCREEN Confirm?", "setting": "[3]; YES/NO call", "value": "YES"},
      {"measurement": "COUNTERSCREEN Curve Class", "setting": "[3]; qHTS curve class", "value": 4},
      {"measurement": "Active in Gel Assay?", "setting": "[4]", "value": "YES"},
      {"measurement": "IC50", "setting": "[5]; FP assay in the presence of glutathione (GSH +), read-out: GSH (+) Assay IC50", "value": 1.2, "unit": "µM"},
      {"measurement": "IC50", "setting": "[5]; FP assay without glutathione (GSH -), read-out: GSH (-) Assay IC50", "value": 4, "unit": "µM"},
      {"measurement": "GSH/CIB1 IC50 ratio", "setting": "[5]; ratio of GSH (+) IC50 to GSH (-) IC50", "value": 0.3},
      {"measurement": "GSH Assay Result", "setting": "[5]; thiol reactivity call: No change / Active", "value": "No change"},
      {"measurement": "Platelet Aggregation Result", "setting": "[6]; 10 μM compound", "value": "Active"},
      {"measurement": "inhibition at 10 µM", "setting": "[6]; Homo sapiens, Platelet, single concentration of 10 μM (n = 3), thrombin", "value": 94, "unit": "%"},
      {"measurement": "lowest concentration required to achieve >95% inhibition of platelet aggregation", "setting": "[6]; dose response, thrombin", "value": 2, "unit": "µM"},
      {"measurement": "Thrombin Assay 10 µM (%)", "setting": "[6]; platelet aggregation inhibition at 10 µM", "value": 94, "unit": "%"},
      {"measurement": "IC50", "setting": "[7]", "value": 15.6, "unit": "µM"}
    ]}
  ]
}
